The text below walks through data of PubChem BioAssay AID1259407 (Chemical Carcinogenesis Research Information System (CCRIS), 2018).

Calls of active or inactive are those of the source. No rule for the calls is given here.

The data set concerns CCRIS mutagenicity, Ames/micronucleus/aberration tests. In words: CCRIS mutagenicity studies.
Setting [1] is: Test System: AMES SALMONELLA TYPHIMURIUM, Strain/Indicator: TA97, Metabolic Activation: NONE, Method: PREINCUBATION
Where [2] appears, read: Test System: AMES SALMONELLA TYPHIMURIUM, Strain/Indicator: TA98, Metabolic Activation: NONE, Method: PREINCUBATION
The mark [3] stands for this setting: Test System: AMES SALMONELLA TYPHIMURIUM, Strain/Indicator: TA98, Metabolic Activation: NONE, Method: STANDARD PLATE.
The mark [4] stands for this setting: Test System: AMES SALMONELLA TYPHIMURIUM, Strain/Indicator: TA100, Metabolic Activation: NONE, Method: PREINCUBATION
Where [5] appears, read: Test System: AMES SALMONELLA TYPHIMURIUM, Strain/Indicator: TA100, Metabolic Activation: NONE, Method: STANDARD PLATE.
Setting [6] is: Test System: AMES SALMONELLA TYPHIMURIUM, Strain/Indicator: TA1535, Metabolic Activation: NONE, Method: STANDARD PLATE.
Setting [7] is: Test System: AMES SALMONELLA TYPHIMURIUM, Strain/Indicator: TA1537, Metabolic Activation: NONE, Method: STANDARD PLATE.

As to `NCCNC(=O)c1ccc(Cl)cn1`, the mutagenic call was “inactive; negative” under setting [1]; “inactive; negative” (Test System: AMES SALMONELLA TYPHIMURIUM, Strain/Indicator: TA97, Metabolic Activation: NONE, Method: STANDARD PLATE); “inactive; negative” (Test System: AMES SALMONELLA TYPHIMURIUM, Strain/Indicator: TA97, Metabolic Activation: RAT, LIVER, S-9, PHENOBARBITAL AND BETA-NAPHTHOFLAVONE, Method: PREINCUBATION); “inactive; negative” (Test System: AMES SALMONELLA TYPHIMURIUM, Strain/Indicator: TA97, Metabolic Activation: RAT, LIVER, S-9, PHENOBARBITAL AND BETA-NAPHTHOFLAVONE, Method: STANDARD PLATE); “inactive; negative” under setting [2]; “inactive; negative” under setting [3]. Besides, the mutagenic call (Test System: AMES SALMONELLA TYPHIMURIUM, Strain/Indicator: TA98, Metabolic Activation: RAT, LIVER, S-9, PHENOBARBITAL AND BETA-NAPHTHOFLAVONE, Method: PREINCUBATION) is “inactive; negative”; the mutagenic call (Test System: AMES SALMONELLA TYPHIMURIUM, Strain/Indicator: TA98, Metabolic Activation: RAT, LIVER, S-9, PHENOBARBITAL AND BETA-NAPHTHOFLAVONE, Method: STANDARD PLATE) was “inactive; negative”; the mutagenic call under setting [4] was “inactive; negative”; the mutagenic call under setting [5] was “inactive; negative”; the mutagenic call (Test System: AMES SALMONELLA TYPHIMURIUM, Strain/Indicator: TA100, Metabolic Activation: RAT, LIVER, S-9, PHENOBARBITAL AND BETA-NAPHTHOFLAVONE, Method: PREINCUBATION) was “inactive; negative”; the mutagenic call (Test System: AMES SALMONELLA TYPHIMURIUM, Strain/Indicator: TA100, Metabolic Activation: RAT, LIVER, S-9, PHENOBARBITAL AND BETA-NAPHTHOFLAVONE, Method: STANDARD PLATE) was “inactive; negative”. The mutagenic call (Test System: AMES SALMONELLA TYPHIMURIUM, Strain/Indicator: TA102, Metabolic Activation: NONE, Method: PREINCUBATION) is “inactive; negative”; the mutagenic call (Test System: AMES SALMONELLA TYPHIMURIUM, Strain/Indicator: TA102, Metabolic Activation: NONE, Method: STANDARD PLATE) is “inactive; negative”; the mutagenic call (Test System: AMES SALMONELLA TYPHIMURIUM, Strain/Indicator: TA102, Metabolic Activation: RAT, LIVER, S-9, PHENOBARBITAL AND BETA-NAPHTHOFLAVONE, Method: PREINCUBATION) is “inactive; negative”; the mutagenic call (Test System: AMES SALMONELLA TYPHIMURIUM, Strain/Indicator: TA102, Metabolic Activation: RAT, LIVER, S-9, PHENOBARBITAL AND BETA-NAPHTHOFLAVONE, Method: STANDARD PLATE) was “inactive; negative”; the mutagenic call (Test System: AMES SALMONELLA TYPHIMURIUM, Strain/Indicator: TA1535, Metabolic Activation: NONE, Method: PREINCUBATION) was “inactive; negative”; the mutagenic call under setting [6] is “inactive; negative”. The mutagenic call (Test System: AMES SALMONELLA TYPHIMURIUM, Strain/Indicator: TA1535, Metabolic Activation: RAT, LIVER, S-9, PHENOBARBITAL AND BETA-NAPHTHOFLAVONE, Method: PREINCUBATION) is “inactive; negative”; the mutagenic call (Test System: AMES SALMONELLA TYPHIMURIUM, Strain/Indicator: TA1535, Metabolic Activation: RAT, LIVER, S-9, PHENOBARBITAL AND BETA-NAPHTHOFLAVONE, Method: STANDARD PLATE) is “inactive; negative”; the mutagenic call (Test System: AMES SALMONELLA TYPHIMURIUM, Strain/Indicator: TA1537, Metabolic Activation: NONE, Method: PREINCUBATION) is “inactive; negative”; the mutagenic call under setting [7] is “inactive; negative”; the mutagenic call (Test System: AMES SALMONELLA TYPHIMURIUM, Strain/Indicator: TA1537, Metabolic Activation: RAT, LIVER, S-9, PHENOBARBITAL AND BETA-NAPHTHOFLAVONE, Method: PREINCUBATION) was “inactive; negative”; the mutagenic call (Test System: AMES SALMONELLA TYPHIMURIUM, Strain/Indicator: TA1537, Metabolic Activation: RAT, LIVER, S-9, PHENOBARBITAL AND BETA-NAPHTHOFLAVONE, Method: STANDARD PLATE) was “inactive; negative”. In addition, the mutagenic call reads like this: (Test System: AMES SALMONELLA TYPHIMURIUM, Strain/Indicator: TA1538, Metabolic Activation: NONE, Method: PREINCUBATION) “inactive; negative”; (Test System: AMES SALMONELLA TYPHIMURIUM, Strain/Indicator: TA1538, Metabolic Activation: NONE, Method: STANDARD PLATE) “inactive; negative”; (Test System: AMES SALMONELLA TYPHIMURIUM, Strain/Indicator: TA1538, Metabolic Activation: RAT, LIVER, S-9, PHENOBARBITAL AND BETA-NAPHTHOFLAVONE, Method: PREINCUBATION) “inactive; negative”; (Test System: AMES SALMONELLA TYPHIMURIUM, Strain/Indicator: TA1538, Metabolic Activation: RAT, LIVER, S-9, PHENOBARBITAL AND BETA-NAPHTHOFLAVONE, Method: STANDARD PLATE) “inactive; negative”; (Test System: CHINESE HAMSTER V-79, Strain/Indicator: V-79 (HPRT)/6-THIOGUANINE, Metabolic Activation: NONE) “inactive; negative”; (Test System: CHINESE HAMSTER V-79, Strain/Indicator: V-79 (HPRT)/6-THIOGUANINE, Metabolic Activation: RAT, LIVER, S-9, AROCLOR 1254) “inactive; negative”. Where the note is “Test System: UDS RAT HEPATOCYTES, Strain/Indicator: THY INCORP, Metabolic Activation: NONE, Method: AUTORADIOGRAPHY”, the mutagenic call is “inactive; negative”.
Regarding `O[C@@H]1[C@H]2O[C@H]2c2c(ccc3c4ccccc4c4ccccc4c23)[C@H]1O`, the mutagenic call is, setting by setting: under setting [1], “active; positive”; under setting [2], “active; positive”; under setting [4], “active; positive”; (Test System: AMES SALMONELLA TYPHIMURIUM, Strain/Indicator: TA104, Metabolic Activation: NONE, Method: PREINCUBATION) “active; positive”; (Test System: CHINESE HAMSTER V-79, Strain/Indicator: V-79/6-THIOGUANINE, Metabolic Activation: NONE) “active; positive”.
`O=C(n1ccnc1)n1ccnc1`: the mutagenic call reads like this: under setting [3], “inactive; negative”; (Test System: AMES SALMONELLA TYPHIMURIUM, Strain/Indicator: TA98, Metabolic Activation: RAT, LIVER, S-9, AROCLOR 1254, Method: STANDARD PLATE) “inactive; negative”; under setting [5], “inactive; negative”; (Test System: AMES SALMONELLA TYPHIMURIUM, Strain/Indicator: TA100, Metabolic Activation: RAT, LIVER, S-9, AROCLOR 1254, Method: STANDARD PLATE) “inactive; negative”; under setting [6], “inactive; negative”; (Test System: AMES SALMONELLA TYPHIMURIUM, Strain/Indicator: TA1535, Metabolic Activation: RAT, LIVER, S-9, AROCLOR 1254, Method: STANDARD PLATE) “inactive; negative”. Besides, the mutagenic call was “inactive; negative” under setting [7] and “inactive; negative” (Test System: AMES SALMONELLA TYPHIMURIUM, Strain/Indicator: TA1537, Metabolic Activation: RAT, LIVER, S-9, AROCLOR 1254, Method: STANDARD PLATE).
Consider `CN(C)CCNC(=O)c1cccc2c(=O)c3ccccc3sc12`, for which the mutagenic call under setting [7] is “active; positive”.
`COc1cc2nc3cc(N)ccc3nc2cc1N`: the mutagenic call (Test System: AMES SALMONELLA TYPHIMURIUM, Strain/Indicator: TA98, Metabolic Activation: S-9, Method: SUSPENSION/PLATE) is “active; positive”.
